Experimental data taken from publication PMC6771786, “Closing the gap: yeast electron‐transferring flavoprotein links the oxidation of D‐lactate and D‐α‐hydroxyglutarate to energy production via the respiratory chain” (The Febs Journal, 2019).
Where a chain is given by its changes, count along the chain named. In names and notes the source's numbering stands.

What was measured:
[1] = target: T1, Dld2 (D-lactate dehydrogenase 2) (Saccharomyces cerevisiae, UniProt P46681); experiment: stopped-flow flavin reduction, hyperbolic fit; assay type: biochemical; details: anaerobic reductive half reaction; 50 mM HEPES, 150 mM NaCl pH 7, 25 °C; 450 nm; fast (first) phase of reduction
T1 construct: produced in Komagataella phaffii KM71H, purified
T1 sequence (P46681 1-530): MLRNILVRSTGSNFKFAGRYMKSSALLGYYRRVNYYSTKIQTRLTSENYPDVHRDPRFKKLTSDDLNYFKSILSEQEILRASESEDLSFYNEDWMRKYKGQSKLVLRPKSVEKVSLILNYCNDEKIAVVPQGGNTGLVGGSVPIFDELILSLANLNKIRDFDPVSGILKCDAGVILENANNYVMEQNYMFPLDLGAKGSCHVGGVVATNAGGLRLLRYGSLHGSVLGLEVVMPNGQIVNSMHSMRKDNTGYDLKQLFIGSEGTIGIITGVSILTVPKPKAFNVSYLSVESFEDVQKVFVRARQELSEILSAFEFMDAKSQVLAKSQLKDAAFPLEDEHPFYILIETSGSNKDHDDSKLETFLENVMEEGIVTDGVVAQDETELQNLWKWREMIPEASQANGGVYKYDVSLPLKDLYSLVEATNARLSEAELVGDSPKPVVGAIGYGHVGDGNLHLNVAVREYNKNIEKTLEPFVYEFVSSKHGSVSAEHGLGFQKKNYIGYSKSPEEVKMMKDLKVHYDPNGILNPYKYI
Text: stopped-flow flavin reduction, hyperbolic fit on Dld2 (D-lactate dehydrogenase 2)

[2] = target: T2, hETF (ETF from Homo sapiens) (Homo sapiens, UniProt P13804+P38117); experiment: UV-visible photoreduction of bound flavin; assay type: binding; details: co-purified cofactor; 50 mM HEPES pH 7, 1 mM DTT, anaerobic
T2 construct: gene ETFA
T2 sequence (P13804 20-333): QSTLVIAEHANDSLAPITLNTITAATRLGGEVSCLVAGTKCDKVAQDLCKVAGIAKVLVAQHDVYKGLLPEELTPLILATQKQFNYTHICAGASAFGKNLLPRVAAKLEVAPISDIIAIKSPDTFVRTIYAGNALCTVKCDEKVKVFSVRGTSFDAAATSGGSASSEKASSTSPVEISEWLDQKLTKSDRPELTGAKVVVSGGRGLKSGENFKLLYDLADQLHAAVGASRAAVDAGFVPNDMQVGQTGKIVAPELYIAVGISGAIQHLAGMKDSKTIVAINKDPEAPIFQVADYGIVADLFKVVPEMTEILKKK
T2 sequence (P38117 2-255): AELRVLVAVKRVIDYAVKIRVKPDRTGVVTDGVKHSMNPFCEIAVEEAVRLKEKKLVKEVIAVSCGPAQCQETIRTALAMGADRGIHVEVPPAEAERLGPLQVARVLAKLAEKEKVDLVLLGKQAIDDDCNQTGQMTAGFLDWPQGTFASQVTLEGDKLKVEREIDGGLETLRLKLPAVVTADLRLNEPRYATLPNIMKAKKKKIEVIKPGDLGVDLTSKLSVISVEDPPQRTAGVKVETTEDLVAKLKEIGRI

[3] = target: T3, hETF (ETF from Homo sapiens) (Homo sapiens, UniProt P13804+P38117, P38117:Y16F); experiment: UV-visible photoreduction of bound flavin; assay type: binding; details: co-purified cofactor; 50 mM HEPES pH 7, 1 mM DTT, anaerobic
T3 construct: gene ETFA
T3 sequence (P13804 20-333): T2 sequence (P13804 20-333)
T3 sequence (P38117 2-255 Y16F): T2 sequence (P38117 2-255) with Y15F

[4] = target: T4, yETF (electron-transferring flavoprotein of Saccharomyces cerevisiae) (Saccharomyces cerevisiae, UniProt P42940+Q12480); experiment: UV-visible spectrum, native vs SDS-denatured; HPLC-DAD; assay type: binding; details: co-purified cofactor; 50 mM HEPES pH 7, 1 mM DTT, 25 °C
T4 construct: gene AIM45; heterodimer (alpha 38 kDa, beta 37 kDa), N-terminal hexahistidine tag on beta subunit (pETM11-His TEV), produced in E. coli Rosetta (DE3)-pLysS
T4 sequence (Q12480 15-344): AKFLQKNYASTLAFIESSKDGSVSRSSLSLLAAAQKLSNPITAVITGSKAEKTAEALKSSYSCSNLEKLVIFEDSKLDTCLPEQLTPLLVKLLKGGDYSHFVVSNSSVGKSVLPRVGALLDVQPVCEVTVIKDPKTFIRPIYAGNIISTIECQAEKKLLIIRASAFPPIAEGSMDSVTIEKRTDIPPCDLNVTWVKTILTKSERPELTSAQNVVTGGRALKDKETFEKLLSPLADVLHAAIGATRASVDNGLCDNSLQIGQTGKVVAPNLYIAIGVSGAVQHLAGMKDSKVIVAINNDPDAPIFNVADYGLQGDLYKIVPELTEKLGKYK
T4 sequence (P42940 1-261): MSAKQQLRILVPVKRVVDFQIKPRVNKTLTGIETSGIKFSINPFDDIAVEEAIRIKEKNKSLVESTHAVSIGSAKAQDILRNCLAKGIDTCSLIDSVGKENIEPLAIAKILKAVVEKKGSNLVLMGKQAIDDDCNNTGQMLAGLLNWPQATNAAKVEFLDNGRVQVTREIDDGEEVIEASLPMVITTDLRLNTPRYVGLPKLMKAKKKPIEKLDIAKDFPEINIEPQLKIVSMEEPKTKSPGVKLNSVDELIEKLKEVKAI

purified protein = substrate: O=C(O)CC[C@@H](O)C(=O)O; experiment: purified protein; assay type: biochemical, Saccharomyces cerevisiae; details: 125 µM 2,6-dichlorophenol indophenol as acceptor, aerobic, 50 mM HEPES, 150 mM NaCl pH 7, 25 °C, apparent

Molecule: C[C@@H](O)C(=O)O [D‐lactate]
- Kd [1]: 15 ± 1 mM

Molecule: Cc1cc2nc3c(=O)[nH]c(=O)nc-3n(C[C@H](O)[C@H](O)[C@H](O)COP(=O)(O)OP(=O)(O)OC[C@H]3O[C@@H](n4cnc5c(N)ncnc54)[C@H](O)[C@@H]3O)c2cc1C [FAD]
- UV-visible photoreduction of bound flavin [2]: hETF wild‐type (C), and hETF‐βTyr16Phe (D) in the course of the photoreduction: oxidized FAD
- UV-visible photoreduction of bound flavin [3]: hETF‐βTyr16Phe (D) in the course of the photoreduction: oxidized FAD
- UV-visible spectrum, native vs SDS-denatured; HPLC-DAD [4]: absorption spectrum of denatured yETF further indicate the presence of an FAD chromophore

B1: Dld2 (D-lactate dehydrogenase 2) (Saccharomyces cerevisiae S288C) (protein)
chain: T1 sequence (P46681 1-530)
notes: produced in Komagataella phaffii KM71H, purified
- Km (purified protein): 0.35 ± 0.05 mM
- kcat (purified protein): 0.42 ± 0.02 s⁻¹
- kcat/Km (purified protein): 1200 ± 300 M⁻¹ s⁻¹
